Test results as given in patent US11116735B2, “Use of substituted benzylideneguanidine derivatives as synergists for polymyxin antibiotics” (GUANGZHOU INSIGHTER BIOTECHNOLOGY CO., LTD., priority 2015, dated 2021).

Key:
E. coli 4D-6 = experiment: MIC by doubling dilution, colistin sulfate-resistant E. coli 4D-6; conditions: for In vitro minimum inhibitory concentration (MIC) of the substance alone: E. coli 4D-6, colistin sulfate-resistant, derivatives as hydrochlorides; for In vitro MIC of colistin sulfate in the presence of the substituted benzylideneguanidine derivative: E. coli 4D-6, resistant, culture comprised 20.0 ppm of the derivative (hydrochloride)
E. coli 2G-7 = experiment: MIC by doubling dilution, colistin sulfate-resistant E. coli 2G-7; conditions: for In vitro minimum inhibitory concentration (MIC) of the substance alone: E. coli 2G-7, colistin sulfate-resistant, derivatives as hydrochlorides; for In vitro MIC of colistin sulfate in the presence of the substituted benzylideneguanidine derivative: E. coli 2G-7, resistant, culture comprised 20.0 ppm of the derivative (hydrochloride)
E. coli 5F-1 = experiment: MIC by doubling dilution, colistin sulfate-resistant E. coli 5F-1; conditions: for In vitro minimum inhibitory concentration (MIC) of the substance alone: E. coli 5F-1, colistin sulfate-resistant, derivatives as hydrochlorides; for In vitro MIC of colistin sulfate in the presence of the substituted benzylideneguanidine derivative: E. coli 5F-1, resistant, culture comprised 20.0 ppm of the derivative (hydrochloride)
E. coli 3H-4 = experiment: MIC by doubling dilution, colistin sulfate-resistant E. coli 3H-4; conditions: for In vitro minimum inhibitory concentration (MIC) of the substance alone: E. coli 3H-4, colistin sulfate-resistant, derivatives as hydrochlorides; for In vitro MIC of colistin sulfate in the presence of the substituted benzylideneguanidine derivative: E. coli 3H-4, resistant, culture comprised 20.0 ppm of the derivative (hydrochloride)
E. coli 2S-19 = experiment: MIC by doubling dilution, colistin sulfate-susceptible E. coli 2S-19; assay type: cell-based, Escherichia coli; conditions: for In vitro minimum inhibitory concentration (MIC) of the substance alone: E. coli 2S-19, colistin sulfate-susceptible, derivatives as hydrochlorides; for In vitro MIC of colistin sulfate in the presence of the substituted benzylideneguanidine derivative: E. coli 2S-19, culture comprised 20.0 ppm of the derivative (hydrochloride), colistin sulfate serially diluted
weanling piglets = experiment: Synergy of derivatives and colistin sulfate in the feed for weanling piglets; assay type: in vivo, Duroc×Landrace×Large crossbred lean weanling piglets; conditions: creep feed with 20 ppm colistin sulfate and 150 ppm derivative (hydrochloride), ten days
Procedure: 90 28-day-aged Duroc×Landrace×Large crossbred lean weanling piglets similar in weight were divided into 9 groups, 10 piglets in each group. For each group, colistin sulfate and/or various substituted benzylideneguanidine derivatives were added into the antibiotic-free creep feed. The piglets were given ad libitum access to feed and water during the experiment. Weight gain, feed efficiency and diarrhea rate of each group within ten days were recorded.

E. coli 3Y-9 = experiment: MIC by doubling dilution, colistin sulfate-susceptible E. coli 3Y-9; assay type: cell-based, Escherichia coli; conditions: for In vitro minimum inhibitory concentration (MIC) of the substance alone: E. coli 3Y-9, colistin sulfate-susceptible, derivatives as hydrochlorides; for In vitro MIC of colistin sulfate in the presence of the substituted benzylideneguanidine derivative: E. coli 3Y-9, culture comprised 20.0 ppm of the derivative (hydrochloride), colistin sulfate serially diluted
E. coli 5W-7 = experiment: MIC by doubling dilution, colistin sulfate-susceptible E. coli 5W-7; assay type: cell-based, Escherichia coli; conditions: for In vitro minimum inhibitory concentration (MIC) of the substance alone: E. coli 5W-7, colistin sulfate-susceptible, derivatives as hydrochlorides; for In vitro MIC of colistin sulfate in the presence of the substituted benzylideneguanidine derivative: E. coli 5W-7, culture comprised 20.0 ppm of the derivative (hydrochloride), colistin sulfate serially diluted
E. coli 3B-24 = experiment: MIC by doubling dilution, colistin sulfate-susceptible E. coli 3B-24; assay type: cell-based, Escherichia coli; conditions: for In vitro minimum inhibitory concentration (MIC) of the substance alone: E. coli 3B-24, colistin sulfate-susceptible, derivatives as hydrochlorides; for In vitro MIC of colistin sulfate in the presence of the substituted benzylideneguanidine derivative: E. coli 3B-24, culture comprised 20.0 ppm of the derivative (hydrochloride), colistin sulfate serially diluted

| In vitro minimum inhibitory concentration (MIC) of the substance alone (E. coli 4D-6) [ppm] | In vitro MIC of colistin sulfate in the presence of the substituted benzylideneguanidine derivative (E. coli 4D-6) [ppm] | In vitro minimum inhibitory concentration (MIC) of the substance alone (E. coli 2G-7) [ppm] | In vitro MIC of colistin sulfate in the presence of the substituted benzylideneguanidine derivative (E. coli 2G-7) [ppm] | In vitro minimum inhibitory concentration (MIC) of the substance alone (E. coli 5F-1) [ppm] | In vitro MIC of colistin sulfate in the presence of the substituted benzylideneguanidine derivative (E. coli 5F-1) [ppm] | In vitro minimum inhibitory concentration (MIC) of the substance alone (E. coli 3H-4) [ppm] | In vitro MIC of colistin sulfate in the presence of the substituted benzylideneguanidine derivative (E. coli 3H-4) [ppm] | In vitro minimum inhibitory concentration (MIC) of the substance alone (E. coli 2S-19) [ppm] | In vitro MIC of colistin sulfate in the presence of the substituted benzylideneguanidine derivative (E. coli 2S-19) [ppm] | In vitro minimum inhibitory concentration (MIC) of the substance alone (E. coli 3Y-9) [ppm] | In vitro MIC of colistin sulfate in the presence of the substituted benzylideneguanidine derivative (E. coli 3Y-9) [ppm] | In vitro minimum inhibitory concentration (MIC) of the substance alone (E. coli 5W-7) [ppm] | In vitro MIC of colistin sulfate in the presence of the substituted benzylideneguanidine derivative (E. coli 5W-7) [ppm] | In vitro minimum inhibitory concentration (MIC) of the substance alone (E. coli 3B-24) [ppm] | In vitro MIC of colistin sulfate in the presence of the substituted benzylideneguanidine derivative (E. coli 3B-24) [ppm] | Structure (SMILES) | Average daily weight gain (weanling piglets) [g] | Diarrhea rate (weanling piglets) [%] | Feed conversion ratio (weanling piglets) |
| --- | --- | --- | --- | --- | --- | --- | --- | --- | --- | --- | --- | --- | --- | --- | --- | --- | --- | --- | --- |
| >800 | 4.0 | >800 | 1.0 | >800 | 2.0 | >800 | 2.0 | >800 | 1.00 | >800 | 1.00 | >800 | 0.50 | >800 | 1.00 | COc1ccc(C=NN=C(N)NN=Cc2ccc(OC)cc2)cc1 [Compound 1] | 243 | 18 | 1.529 |
| >800 | 16 | >800 | 4.0 | >800 | 8.0 | >800 | 4 | >800 | 1.00 | >800 | 1.00 | >800 | 0.50 | >800 | 1.00 | CCCCCCCCOc1ccc(C=NNC(=N)NN=Cc2ccc(OCCCCCCCC)cc2)cc1 [Compound 4] | 239 | 19 | 1.532 |
| >800 | 32 | >800 | 8 | >800 | 16 | >800 | 8 | >800 | 1.00 | >800 | 2.00 | >800 | 1.00 | >800 | 2.00 | CCC(CC)Oc1ccc(C=NN=C(N)NN=Cc2ccc(OC(CC)CC)cc2)cc1 [Compound 5] | 231 | 25 | 1.565 |
| >800 | 32 | >800 | 8 | >800 | 8 | >800 | 8 | >800 | 2.00 | >800 | 2.00 | >800 | 1.00 | >800 | 2.00 | N=C(NN=Cc1ccc(OCc2ccccc2)cc1)NN=Cc1ccc(OCc2ccccc2)cc1 [Compound 7] | 240 | 16 | 1.576 |
| >800 | 16 | >800 | 4 | >800 | 8 | >800 | 4 | >800 | 1.00 | >800 | 1.00 | >800 | 0.50 | >800 | 1.00 | N=C(N/N=C/c1ccc(Cl)cc1)N/N=C/c1ccc(Cl)cc1 [Compound 8] | 220 | 33 | 1.608 |
| >800 | 16 | >800 | 4 | >800 | 8 | >800 | 4 | >800 | 1.00 | >800 | 1.00 | >800 | 0.50 | >800 | 1.00 | N=C(NN=Cc1ccc([N+](=O)[O-])cc1)NN=Cc1ccc([N+](=O)[O-])cc1 [Compound 15] | – | – | – |
| >800 | 32 | >800 | 8 | >800 | 16 | >800 | 8 | >800 | 1.00 | >800 | 2.00 | >800 | 0.50 | >800 | 1.00 | N=C(NN=Cc1ccc(OC(F)(F)F)cc1)NN=Cc1ccc(OC(F)(F)F)cc1 [Compound 16] | – | – | – |
